The text below walks through data of patent US8399436B2, “N-pyrazolyl carboxamides as CRAC channel inhibitors” (Glaxo Group Limited, priority 2009, dated 2013).

The target in this experiment is ICRAC current (calcium release activated calcium channel) (Homo sapiens, UniProt Q96D31). It is filed as cell-based. Conditions: Jurkat E6-1 cells; at a final assay concentration of 15 μM.

Structures can show the parent of a compound that is named as a salt.

Chain of ICRAC current (calcium release activated calcium channel) (Q96D31 whole entry): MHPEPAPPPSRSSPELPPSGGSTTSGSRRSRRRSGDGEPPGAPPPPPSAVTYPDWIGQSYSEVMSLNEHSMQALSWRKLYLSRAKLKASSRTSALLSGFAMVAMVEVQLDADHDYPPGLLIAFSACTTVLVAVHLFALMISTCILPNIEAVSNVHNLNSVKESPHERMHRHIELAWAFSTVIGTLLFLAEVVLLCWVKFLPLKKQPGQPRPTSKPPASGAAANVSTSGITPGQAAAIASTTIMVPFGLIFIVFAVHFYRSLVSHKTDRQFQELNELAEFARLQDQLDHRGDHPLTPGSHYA
Chain of ICRAC current (calcium release activated calcium channel) (Q13586 23-685, further chain): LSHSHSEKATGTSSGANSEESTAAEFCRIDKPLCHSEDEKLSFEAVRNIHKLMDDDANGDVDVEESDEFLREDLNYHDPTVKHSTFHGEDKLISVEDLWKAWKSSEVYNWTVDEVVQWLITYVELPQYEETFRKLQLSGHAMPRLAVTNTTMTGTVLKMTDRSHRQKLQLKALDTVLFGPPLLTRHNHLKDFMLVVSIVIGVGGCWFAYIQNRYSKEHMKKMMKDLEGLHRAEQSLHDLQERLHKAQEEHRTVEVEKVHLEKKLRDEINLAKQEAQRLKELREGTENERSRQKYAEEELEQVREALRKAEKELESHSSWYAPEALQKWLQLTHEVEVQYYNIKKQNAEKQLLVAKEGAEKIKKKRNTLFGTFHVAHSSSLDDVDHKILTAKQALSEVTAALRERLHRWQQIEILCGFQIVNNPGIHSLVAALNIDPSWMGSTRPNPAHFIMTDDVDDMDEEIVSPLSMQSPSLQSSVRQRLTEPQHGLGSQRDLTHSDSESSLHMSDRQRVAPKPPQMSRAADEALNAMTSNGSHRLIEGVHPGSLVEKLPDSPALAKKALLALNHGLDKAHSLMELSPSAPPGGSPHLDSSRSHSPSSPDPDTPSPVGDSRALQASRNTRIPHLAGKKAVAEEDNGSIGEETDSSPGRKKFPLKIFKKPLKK
Procedure: This ICRAC assay uses the SERCA inhibitor thapsigargin to produce calcium depletion and activate an ICRAC current. […] Changes in intracellular calcium levels are determined by the inclusion of the calcium sensitive fluorescent dye Fluo-4 and the use of the FLIPR detection system. Inhibitors of ICRAC would be expected to decrease the calcium influx upon calcium add-back, thus reducing fluorescent signal.
Jurkat E6-1 is an established immortalised T lymphocyte cell line previously shown to express a functional ICRAC current. Jurkat cells grow in suspension, are cultured in DMEM+10% FBS, maintained in T175 flasks at 37° C./5% CO2, and are subcultured twice a week with either 1:10-1:20 splits. 1 confluent T175 yields 100 ml of approximately 2×10^6 cells/ml.
Loading buffer contains; NaCl 145 mM, KCl 2.5 mM, HEPES 10 mM, Glucose 10 mM, MgCl2 1.2 mM, made up with water, then pH adjusted to 7.4 using NaOH 1 M. Finally Fluo-4AM & brilliant black are added to give a final assay concentration of 2 μM and 250 μM respectively.
The required seeding density for a 384 plate is 20,000 cells per well. […] Plates are then transferred to the FLIPR which initially measures baseline fluorescence, followed by any increase in fluorescence evoked by the online addition of a 6 mM (1.2 mM FAC) calcium solution. […]

Consider `O=C(Nc1ccn(Cc2ccc(OP(=O)([O-])[O-])cc2C(F)(F)F)n1)c1c(F)cccc1F.[Na+].[Na+]` [Example 186, 4-[(3-{[(2,6-Difluorophenyl)carbonyl]amino}-1H-pyrazol-1-yl)methyl]-3-(trifluoromethyl)phenyl dihydrogen phosphate disodium salt], for which the negative logarithm of the IC50 (pIC50) (usually the negative decadic logarithm of the IC50, by convention in mol/L) was 4.9.
Consider `O=C(c1c(F)cccc1F)N(COP(=O)(O)O)c1ccn(Cc2c(F)cccc2C(F)(F)F)n1` [Example 187, [[(2,6-Difluorophenyl)carbonyl](1-{[2-fluoro-6-(trifluoromethyl)phenyl]methyl}-1H-pyrazol-3-yl)amino]methyl dihydrogen phosphate disodium salt], for which the pIC50 was less than 4.8.
